Test results from patent publication US20060189520A1, “Treatment of diabetes” (priority 2002, published 2006).
Values joined by “and” are separate entries in the source; they are usually repeats but may differ in a detail not shown here. Identical values can stand only once.

Tested on: NOD mice with recent-onset diabetes
Assay: GLP-1 and gastrin therapy of recent-onset diabetes in NOD mice, fasting blood glucose
Format: in vivo, mouse
Settings: NOD female mice, GLP-1 100 μg/kg/day, gastrin 3 μg/kg/day, i.p. twice a day
Excerpt: In this example, the effect of treatment by a combination of GLP-1 and gastrin was examined in NOD mice with recent onset diabetes, to determine whether administration of both GLP-1 and gastrin would prevent severe hyperglycemia, ketoacidosis and death as well as increase pancreatic insulin content in NOD mice with recent-onset diabetes. The I.N.T.™ composition used was gastrin as synthetic human gastrin I having 17 amino acid residues with a Leu residue at amino acid position 15. The GLP-1 used was GLP-1 which is the biologically active fragment of human/mouse GLP-1 (having residues at positions 7-36 compared to the precursor from which the fragment is processed; obtained from Bachem H6795).
Non-obese diabetic (NOD) female mice, ages 12-14 weeks, were monitored for development of onset of diabetes (fasting blood glucose >8.0 to 15 mmol/l), and within 48 hours after onset of symptoms, two groups of mice were each treated as follows: one group was treated with vehicle only; and the other group was administered 100 μg/kg/day of GLP-1, each treatment administered via the intraperitoneal route twice daily.
Therapy was administered for 14 days. Animals were monitored weekly for fasting blood glucose (FBG) levels. FBG levels were measured at about 12 hours after food had been withdrawn, and 24 hours after the last peptide or vehicle injection. Upon cessation of therapy, all mice were monitored for FBG levels for the next 4 weeks (weeks 2-6) so as to determine whether prevention of hyperglycemia persisted after termination of therapeutic treatment.
The protocol includes sampling of these mice for data again at 6 weeks, and blood collected for assay of FBG and plasma C-peptide, and the mice are sacrificed for pancreatic insulin determinations and scoring of islet inflammation (insulitis). From the outset of treatment, mice received neither insulin-replacement treatment nor immunosuppression. The following parameters are assessed: survival rates, pancreatic insulin levels, presence of islet inflammation and fasting blood glucose levels.

## GLP-1: biologically active fragment of human/mouse GLP-1 (having residues at positions 7-36); obtained from Bachem H6795
Day 0 (start of treatment)
  FBG (mM) at day: 0: 12.3 ± 0.9 mM
Day 7 of treatment
  FBG (mM) at day: 7: 14.1 ± 1.8 mM
Day 14 (end of treatment)
  FBG (mM) at day: 14: 15.3 ± 2.6 mM
Day 18 (treatment stopped at 14 days)
  FBG (mM) at day: 18: 15.8 mM and 15.8 ± 4.2 mM
